Data reported in US5459260A, “Tricyclic or tetracyclic carbapenem compounds, their production and use” (Takeda Chemical Industries, Ltd., priority 1991, dated 1995).
Converted amounts (≈) assume the structure as drawn.

Tests used:
Test in all cases: MIC by the agar dilution method
Format in all cases: cell-based
[1] = system: C. diphtheriae Tronto; conditions: Corynebacterium diphtheriae, 10^8 CFU/ml, Trypticase soy agar, 37° C. overnight
Experimental: (§1) The MICs of the test compound were determined by the agar dilution method. Thus, 1.0 ml portions of serially diluted aqueous solutions of the test compound were poured in petri dishes and admixed with 9.0 ml portions of Trypticase soy agar. Then, a suspension (about 10^8 CFU/ml) of each test strain was smeared on each agar plate and incubated at 37° C. overnight. The lowest concentration of the test compound inhibiting growth of the test strain 100% was regarded as the minimal inhibitory concentration, MIC.

[2] = system: C. freundii IFO 12681; conditions: Citrobacter freundii, IFO12681, 10^8 CFU/ml, Trypticase soy agar, 37° C. overnight
Experimental: as §1

[3] = system: C. freundii TN 474; conditions: Citrobacter freundii, TN474, 10^8 CFU/ml, Trypticase soy agar, 37° C. overnight
Experimental: as §1

[4] = system: E. cloacae IFO 12937; conditions: Enterobacter cloacae, IFO12937, 10^8 CFU/ml, Trypticase soy agar, 37° C. overnight
Experimental: as §1

[5] = system: E. cloacae TN 583; conditions: Enterobacter cloacae, TN583, 10^8 CFU/ml, Trypticase soy agar, 37° C. overnight
Experimental: as §1

[6] = system: E. coli NIHJ JC-2; conditions: Escherichia coli, NIHJJC2, 10^8 CFU/ml, Trypticase soy agar, 37° C. overnight
Experimental: as §1

[7] = system: E. coli NIHJ O-111; conditions: Escherichia coli, NIHJO111, 10^8 CFU/ml, Trypticase soy agar, 37° C. overnight
Experimental: as §1

[8] = system: E. coli NIHJ T-7; conditions: Escherichia coli, NIHJT7, 10^8 CFU/ml, Trypticase soy agar, 37° C. overnight
Experimental: as §1

[9] = system: K. oxytoca TN 1711; conditions: Klebsiella oxytoca, TN1711, 10^8 CFU/ml, Trypticase soy agar, 37° C. overnight
Experimental: as §1

[10] = system: K. pneumoniae DT; conditions: Klebsiella pneumoniae, 10^8 CFU/ml, Trypticase soy agar, 37° C. overnight
Experimental: as §1

[11] = system: M. morganii IFO 3168; conditions: Morganella morganii, IFO3168, 10^8 CFU/ml, Trypticase soy agar, 37° C. overnight
Experimental: as §1

[12] = system: P. mirabilis IFO 3849; conditions: Proteus mirabilis, IFO3849, 10^8 CFU/ml, Trypticase soy agar, 37° C. overnight
Experimental: as §1

[13] = system: P. vulgaris IFO 3988; conditions: Proteus vulgaris, IFO3988, 10^8 CFU/ml, Trypticase soy agar, 37° C. overnight
Experimental: as §1

[14] = system: S. aureus 1840; conditions: Staphylococcus aureus, 10^8 CFU/ml, Trypticase soy agar, 37° C. overnight
Experimental: as §1

[15] = system: S. aureus 308A-1; conditions: Staphylococcus aureus, 308A1, 10^8 CFU/ml, Trypticase soy agar, 37° C. overnight
Experimental: as §1

[16] = system: S. aureus FDA 209P; conditions: Staphylococcus aureus, FDA209P, 10^8 CFU/ml, Trypticase soy agar, 37° C. overnight
Experimental: as §1

[17] = system: S. marcescens IFO 12648; conditions: Serratia marcescens, IFO12648, 10^8 CFU/ml, Trypticase soy agar, 37° C. overnight
Experimental: as §1

[18] = system: S. mitis America; conditions: Streptococcus mitis, 10^8 CFU/ml, Trypticase soy agar, 37° C. overnight
Experimental: as §1

[19] = system: S. pneumoniae Type I; conditions: Streptococcus pneumoniae, 10^8 CFU/ml, Trypticase soy agar, 37° C. overnight
Experimental: as §1

[20] = system: S. pyogenes E-14; conditions: Streptococcus pyogenes, E14, 10^8 CFU/ml, Trypticase soy agar, 37° C. overnight
Experimental: as §1

[21] = system: S. pyogenes S-8; conditions: Streptococcus pyogenes, S8, 10^8 CFU/ml, Trypticase soy agar, 37° C. overnight
Experimental: as §1

Question: With `C[C@@H](O)[C@H]1C(=O)N2C(C(=O)O)=C3[C@@H](CCO)CCO[C@@H]3[C@H]12` [Example 19] as the molecule, how does the MIC [1] read?
Answer: Its MIC is 0.2 µg/mL (≈ 0.673 µM).

Question: What about the MIC [2] of the same molecule?
Answer: The MIC was 0.2 µg/mL (≈ 0.673 µM).

Question: And the MIC [3]?
Answer: The MIC was 6.25 µg/mL (≈ 21 µM).

Question: And the MIC [4]?
Answer: Its MIC is 6.25 µg/mL (≈ 21 µM).

Question: What about the MIC [5] of the same molecule?
Answer: Its MIC is 12.5 µg/mL (≈ 42 µM).

Question: What about the MIC [6] of the same molecule?
Answer: The MIC was less than 0.1 µg/mL.

Question: And the MIC [7]?
Answer: Its MIC is less than 0.1 µg/mL.

Question: And the MIC [8]?
Answer: The MIC was 1.56 µg/mL (≈ 5.25 µM).

Question: And the MIC [9]?
Answer: The MIC was 1.56 µg/mL (≈ 5.25 µM).

Question: What about the MIC [10] of the same molecule?
Answer: The MIC was 0.2 µg/mL (≈ 0.673 µM).

Question: What about the MIC [11] of the same molecule?
Answer: The MIC was 0.78 µg/mL (≈ 2.62 µM).

Question: What about the MIC [12] of the same molecule?
Answer: Its MIC is 0.39 µg/mL (≈ 1.31 µM).

Question: And the MIC [13]?
Answer: The MIC was 0.78 µg/mL (≈ 2.62 µM).

Question: And the MIC [14]?
Answer: The MIC was 0.2 µg/mL (≈ 0.673 µM).

Question: What about the MIC [15] of the same molecule?
Answer: Its MIC is less than 0.1 µg/mL.

Question: What about the MIC [16] of the same molecule?
Answer: Its MIC is less than 0.1 µg/mL.

Question: What about the MIC [17] of the same molecule?
Answer: The MIC was 0.78 µg/mL (≈ 2.62 µM).

Question: What about the MIC [18] of the same molecule?
Answer: Its MIC is less than 0.1 µg/mL.

Question: And the MIC [19]?
Answer: Its MIC is less than 0.1 µg/mL.

Question: And the MIC [20]?
Answer: The MIC was less than 0.1 µg/mL.

Question: And the MIC [21]?
Answer: The MIC was less than 0.1 µg/mL.
